Laboratory results published in patent US8354426B2, “Naphthyridine derivative monohydrate and method for producing the same” (Toyama Chemical Co., Ltd., priority 2007, dated 2013).
Structures can show the parent of a compound that is named as a salt.

How the values were obtained:
Hygroscopicity test = type: physicochemical; details: stored three weeks, room temperature, relative humidity 97%
Excerpt: The compound of the present invention and the comparative compound were stored for three weeks under the conditions of room temperature and the relative humidity of 97%. […] On the other hand, the comparative compound had deliquesced.

[1] = Solubility in phosphate buffer solution; type: physicochemical; details: aqueous buffer, thermodynamic from solid; 0.2 mol/L phosphate buffer solution (pH 6.5), 25° C., shaken 48 hours
E. faecalis D-2648 = assay: Susceptibility test (MIC, microtiter broth dilution); type: cell-based; details: Enterococcus faecalis, D2648
Method: (§1) The compound of the present invention was dissolved in dimethyl sulfoxide and measured for the antibacterial activity (MIC) by a microtiter broth dilution method recommended by Japanese Society of Chemotherapy.
(§2) Staphylococcus aureus (S. aureus Smith, FDA209P, F-3095), Enterococcus faecalis (E. faecalis D-2648) and Escherichia coli (E. coli NIHJ) were used as the bacteria.
(§3) The bacterial cells, grown overnight on a Mueller-Hinton agar: MHA plate at 35° C., were suspended in a sterilized physiological saline so as to be a 0.5 McFarland equivalent standard. The cell suspension was diluted ten-fold to prepare an inoculum. Approximately 0.005 mL of the inoculum was inoculated into a cation-adjusted Mueller-Hinton broth (CAMHB), 100 μL/well containing the test substance and allowed to grow overnight at 35° C. The lowest concentration of the test substance at which no bacterial growth was observed by the naked eye was determined as MIC.

S. aureus FDA209P = assay: as above; type: cell-based; details: Staphylococcus aureus, CAMHB, overnight at 35° C.
Method: as §1, §2, §3

S. aureus Smith = assay: as above; type: cell-based; details: Staphylococcus aureus, CAMHB, overnight at 35° C.
Method: as §1, §2, §3

E. coli NIHJ = assay: as above; type: cell-based; details: Escherichia coli, CAMHB, overnight at 35° C.
Method: as §1, §2, §3

S. aureus F-3095 = assay: as above; type: cell-based; details: Staphylococcus aureus, F3095
Method: as §1, §2, §3

Structure (SMILES)	Appearance after storage (hygroscopicity / deliquescence) (Hygroscopicity test; trihydrochloride)	solubility at 48 h [1] [mg/mL]	Appearance after storage (hygroscopicity / deliquescence) (Hygroscopicity test; monohydrate)	MIC (E. faecalis D-2648) [µg/mL]	MIC (S. aureus FDA209P) [µg/mL]	MIC (S. aureus Smith) [µg/mL]	MIC (E. coli NIHJ) [µg/mL]	MIC (S. aureus F-3095) [µg/mL]
O=c1ccc2ncc(F)cc2n1CCN1CCC(NCc2cc3c(cn2)OCCO3)CC1 [Comparative Example 1, 1-(2-(4-((2,3-dihydro(1,4)dioxino(2,3-c)pyridin-7-ylmethyl)amino)piperidin-1-yl)ethyl)-7-fluoro-1,5-naphthyridin-2(1H)-one trihydrochloride, reference compound]	deliquesced	–	–	–	–	–	–	–
O=c1ccc2ncc(F)cc2n1CCN1CCC(NCc2cc3c(cn2)OCCO3)CC1 [Example 16, 1-(2-(4-((2,3-dihydro(1,4)dioxino(2,3-c)pyridin-7-ylmethyl)amino)piperidin-1-yl)ethyl)-7-fluoro-1,5-naphthyridin-2(1H)-one monohydrate]	–	21.2	powder with no apparent change	0.25	0.0313	0.0625	0.125	0.0313
